Values quoted from earlier work, collected in US20040067887A1, “Human VNO receptor (R1)” (priority 2000, published 2004).

Columns and labels:
human brain = conditions: human volunteers; delivered non-specifically to the nasal cavity; no detectable odor (Sobel et al. 1999)
human VNO = conditions: for physiological responses after administration to the human VNO: administered to the human VNO

Compound | activation of brain regions detected by fMRI (human brain) | site specificity of physiological responses in vivo (human VNO; human subjects, VNO versus olfactory or respiratory epithelium (Monti-Bloch et al. 1994)) | physiological responses after administration to the human VNO (human VNO)
CC(=O)Oc1ccc2c(c1)CC[C@@H]1[C@@H]2CC[C@]2(C)C=CC[C@@H]12 [PH15, estra-1,3,5(10),16-tetraen-3yl acetate] | dose-dependent activation of the anterior medial thalamus, the inferior frontal gyrus, and other regions of the human brain | induces physiological responses in vivo only when applied specifically to the VNO | 
C[C@@]12C=CC[C@H]1[C@@H]1CCC3=CC(=O)CC[C@]3(C)[C@H]1CC2 [androsta-4,16-dien-3-one] |  |  | induce bradycardia, bradypnea, increases in core body temperature, and other physiological responses
C[C@@]12C=CC[C@H]1[C@@H]1CCc3cc(O)ccc3[C@H]1CC2 [estra-1,3,5(10),16-tetraen-3-ol] |  |  | induce bradycardia, bradypnea, increases in core body temperature, and other physiological responses
